Where “and” joins values, the source holds several entries; their conditions need not be identical. Identical values can stand only once.
Legend:
A2780cis cells = assay: SRB proliferation assay for non-light-sensitive complexes, A2780cis; format: cell-based, human; settings: for Resistance factor: A2780cis vs A2780, SRB assay; for IC50: ambient light, 24 h exposure, 72 h recovery, SRB
Protocol: Cytotoxicity of platinum(II) precursors: To investigate the relationship between the Pt^IV diazidodihydroxido complexes and their Pt^II dichlorido analogues trans-[PtCl2(Am1)(Am2)] (where Am=amine), the cytotoxicities of complexes trans-[PtCl2(MA)(Py)] (5) and trans-[PtCl2(MA)(Tz)] (6) towards A2780 and its cisplatin resistant sub-line A2780cis were determined. The toxicity was not photoinduced, as the complexes are not photoactive. Complexes 5 and 6 are highly cytotoxic towards A2780 and A2780cis cells compared to the reported trans-Pt^II compounds.[18]–[22] Complex 5 is about three-times more cytotoxic than complex 6 towards A2780 cells. […]
Cell Culture and Proliferation Assay for Non-light-sensitive Complexes
The A2780 ovarian cell line was obtained from the ECACC (European Collection of Animal Cell Culture, Salisbury, United Kingdom). The cells were maintained in RPMI 1640 media, which was supplemented with 10% foetal calf serum, 1% L-glutamine, and 1% penicillin/streptomycin. All cells were grown at 310 K in an humidified atmosphere containing 5% CO2. Stock solutions of the Pt complexes were freshly prepared in DMSO to assist dissolution and then diluted into saline and medium (maximum final concentration of DMSO 1% and saline 6%). After plating 5000 A2780 cells per well on day 1, Pt complexes were added to the cancer cells on day 3 at concentrations ranging from 0.01 to 100 µM, depending on the preliminary activity data obtained in screening assays. Cells were exposed to the complexes for 24 h, washed with PBS, supplied with fresh medium, and allowed to grow for three doubling times (72 h), and then the protein content (proportional to cell survival) was measured using the sulforhodamine B (SRB) assay.[7] The standard errors are based on two independent experiments of three replicates each.[8]

pUC19 plasmid DNA = assay: Unwinding of negatively supercoiled DNA, native agarose gel; format: biochemical; settings: in the dark
Protocol: Unwinding of negatively supercoiled DNA: The unwinding induced in negatively supercoiled pUC19 plasmid DNA by treatment with photoactivated 1 or 2 or with 5 or 6 in the dark was measured. The degree of supercoiling was monitored using electrophoresis in native agarose gels[25] (Figure 12). The DNA unwinding angles for 1, 2, 5, and 6 were 22(±3)°, 20(±3)°, 19(±5)° and 23(±2)°, respectively.
Figure 12 Unwinding of negatively supercoiled […] plasmid DNA by: A) 1, and B) 2 under irradiation conditions (420 nm light); or C) 5, and D) 6 in the dark. The top bands in each panel correspond to the form of nicked plasmid and the bottom bands to the closed, negatively supercoiled plasmid. A) Lane 1: control, non-modified DNA; lane 2: irradiated control DNA; […]: DNA modified by photoactivated 1 at rb=0.016, 0.024, 0.032, 0.041 and 0.049, respectively. B) Lanes 1 and 10: control, non-modified DNA; lane 2: irradiated control DNA; lanes 3–9: DNA modified by photoactivated 2 at rb=0.008, 0.011, 0.020, 0.026, 0.035, 0.042 and 0.050, respectively. C) Lanes 1 and 12: control, non-modified DNA; lanes 2–11: DNA modified by 5 in the dark at rb=0.018, 0.027, 0.036, 0.045, 0.054, 0.063, 0.072, 0.081, 0.090 and 0.1, respectively. […]

HMGB1 protein = target: T1, HMGB1 protein (Homo sapiens, UniProt P09429); assay: HMGB1 recognition of platinated 50 bp duplex, gel mobility shift assay; format: binding; settings: 50 bp duplex modified in the dark
T1 sequence (P09429 1-215): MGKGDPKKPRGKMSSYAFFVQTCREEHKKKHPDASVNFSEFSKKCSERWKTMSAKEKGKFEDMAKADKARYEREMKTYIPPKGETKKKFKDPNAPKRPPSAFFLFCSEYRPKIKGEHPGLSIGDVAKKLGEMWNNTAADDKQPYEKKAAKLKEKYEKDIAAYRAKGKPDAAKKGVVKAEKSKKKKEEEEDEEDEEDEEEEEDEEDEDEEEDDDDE
Excerpt: HMGB1 protein recognition: The interactions of high mobility group protein B1 (HMGB1) with a 50 bp duplex DNA adducts formed by 1 or 2 under irradiation conditions and 5 or 6 in the dark were investigated using a gel mobility shift assay.
Figure 13 Recognition by HMGB1 protein of platinated DNA. Affinity of full-length HMGB1 to non-modified (control) DNA (lanes 1 and 2) or DNA modified by cisplatin (7) in the dark (lanes 3 and 4), 5 in the dark (lanes 5 and 6), 6 in the dark (lanes 7 and 8), photoactivated 1 (420 nm light, lanes 9 and 10) or photoactivated 2 (420 nm light, lanes 11 and 12). Lanes 1, 3, 5, 7, 9, 11, no protein added; lanes 2, 4, 6, 8, 10, 12, 700 ng HMGB1 added.

| Structure (SMILES) | Resistance factor (A2780cis cells) | IC50 (A2780cis cells) | Unwinding angle (pUC19 plasmid DNA) | HMGB1 protein recognition (HMGB1 protein) |
| --- | --- | --- | --- | --- |
| C[NH2+][Pt@SP3-2]([Cl])([Cl])[n+]1ccsc1 [Complex 6, trans-[PtCl2(MA)(Tz)]] | 1.0 | 6.8 ± 0.9 µM | 23(±2) ° and 23±2 ° | no detectable binding and no |
| C[NH2+][Pt@SP3-2]([Cl])([Cl])[n+]1ccccc1 [Complex 5, trans-[PtCl2(MA)(Py)]] | 1.25 | 3 ± 0.7 µM | 19(±5) ° and 19±5 ° | no detectable binding and no |
